Test results from patent publication US20080234266A1, “Squaric Acid Derivatives II” (priority 2005, published 2008).

Each molecule was assayed against T1, CHK1 kinase (Homo sapiens, UniProt O14757) (assay: Flashplate method (CHK1), measurement of the CHK1 kinase activity). Settings: class symbols; 'Affinity to receptors'.
T1 construct: glutathione S-transferase (GST); made in house; host or cells: Sf21 insect cells (S. frugiperda), baculovirus
T1 sequence (O14757 1-476): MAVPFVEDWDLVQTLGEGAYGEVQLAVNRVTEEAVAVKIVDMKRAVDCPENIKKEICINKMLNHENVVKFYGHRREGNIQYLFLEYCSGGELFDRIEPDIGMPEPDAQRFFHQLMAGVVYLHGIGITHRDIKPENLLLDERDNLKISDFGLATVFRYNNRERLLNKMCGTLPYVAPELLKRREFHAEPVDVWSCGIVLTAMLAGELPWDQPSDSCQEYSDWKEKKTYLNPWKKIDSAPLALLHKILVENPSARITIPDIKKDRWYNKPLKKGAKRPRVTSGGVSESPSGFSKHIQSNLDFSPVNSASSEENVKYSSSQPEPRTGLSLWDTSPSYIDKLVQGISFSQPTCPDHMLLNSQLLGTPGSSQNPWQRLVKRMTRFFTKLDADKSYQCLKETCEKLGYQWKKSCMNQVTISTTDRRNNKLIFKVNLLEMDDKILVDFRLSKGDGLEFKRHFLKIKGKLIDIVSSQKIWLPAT
Type: biochemical
Experimental: CHK1 kinase is expressed for the purposes of protein production in insect cells (Sf21; S. frugiperda) and subsequent purification by affinity chromatography as fusion protein with glutathione S-transferase in a baculovirus expression vector. The cultivation, infection and digestion of the cells as well as the purification of the fusion protein by column chromatography are carried out in accordance with manufacturer-oriented generic working instructions.
The kinase activity is measured using various available measurement systems. In the scintillation proximity method (Sorg et al., J. of. Biomolecular Screening, 2002, 7, 11-19), the flashplate method or the filter binding test, the radioactive phosphorylation of a protein or peptide as substrate is measured using radioactively labelled ATP (γ^32P-ATP, (γ^33P-ATP). In the case of the presence of an inhibitory compound, a reduced radioactive signal, or none at all, can be detected. Furthermore, homogeneous time-resolved fluorescence resonance energy transfer (HTR-FRET) and fluorescence polarisation (FP) technologies are useful as assay methods (Sills et al., J. of Biomolecular Screening, 2002, 191-214).
The test plates used are 384-well streptavidin-coated Flashplates Plus® from Perkin Elmer (Cat.No. SMP410A001PK). The assay plate is equilibrated with 75 μl of assay buffer per well 30 min before commencement of the experiment. The buffer is sucked out before commencement of the experiment, and the components of the kinase reaction described below are pipetted onto the plate.
CHK1 kinase, a biotinylated substrate peptide (for example CHKtide: […]), is incubated with radioactively labelled ATP in the presence and absence of test substances at 30° Celsius and a total volume of 50 μl. The reaction is terminated using 25 μl of a 0.2 M EDTA solution. After incubation for 30 min at room temperature, the supernatants are filtered off with suction, and the wells are washed three times with 100 μl of 0.9% NaCl solution each time. The measurement of the bound radioactivity is carried out by means of a scintillation measuring instrument (Topcount NXT, Perkin-Elmer).
The full value used is the inhibitor-free kinase reaction. This should be approximately in the range 3000-4000 cpm. The pharmacological zero value used is staurosporin in a final concentration of 0.1 μM. The inhibitory values (IC50) are determined using the program RS1_MTS ( ).
Kinase reaction conditions per well:
0.15 μg of CHKtide ([…])
50 μl total volume (1-fold assay buffer reaction conditions)
Solutions used: • assay buffer:
0.1 mM Titriplex VI (EGTA
10 mM magnesium acetate 0.1% mercaptoethanol
pH=7.5 (to be set using hydrochloric acid) Bovine serum albumin (final concentration 0.1%) is not added until just before use. • stop solution:
0.2 M TitriplexIII (EDTA)
• γ^33P-ATP (Perkin-Elmer) • CHK1 kinase preparations: specific activity>50 U/mg • CHKtide solution: biotinylated peptide substrate (Biotrend) stored as stock solution (concentration 0.15 mg/ml).

Compound	IC50 [nM]
CC(=O)c1cccc(CNc2c(Nc3ccc4[nH]cnc4c3)c(=O)c2=O)c1 [Compound A127, 3-(1H-benzimidazol-5-ylamino)-4-(3-acetyl-benzylamino)cyclobut-3-ene-1,2-dione]	> 1000
CCN(CC)CCn1cnc2ccc(Nc3c(N[C@H](C)c4cccc(O)c4)c(=O)c3=O)cc21 [Compound A66, 3-[3-(2-diethylaminoethyl)-3H-benzimidazol-5-ylamino]-4-[(R)-1-(3-hydroxyphenyl)ethyl-amino]cyclobut-3-ene-1,2-dione]	> 1000
CCN(CC)CCn1cnc2cc(Nc3c(N[C@H](C)c4cccc(OC)c4)c(=O)c3=O)ccc21 [Compound A168, 3-[1-(2-diethylaminoethyl)-1H-benzimidazol-5-ylamino]-4-[(R)-1-(3-methoxyphenyl)ethyl-amino]cyclobut-3-ene-1,2-dione]	> 1000
CS(=O)(=O)NCCOc1cccc(CNc2c(Nc3ccc4[nH]cnc4c3)c(=O)c2=O)c1 [Compound A110, 3-(1H-benzimidazol-5-ylamino)-4-[3-(2-methylsulfonylaminoethoxy)benzylamino]-cyclobut-3-ene-1,2-dione]	> 1000
O=c1c(NCc2cccc(B(O)O)c2)c(Nc2ccc3[nH]cnc3c2)c1=O [Compound A125, 3-{[2-(1H-benzimidazol-5-ylamino)-3,4-dioxo-cyclobut-1-enylamino]methyl}phenylboronic acid]	> 1000
CCN(CC)CCn1cnc2cc(Nc3c(N[C@H](C)c4cccc(O)c4)c(=O)c3=O)ccc21 [Compound A73, 3-[1-(2-diethylaminoethyl)-1H-benzimidazol-5-ylamino]-4-[(R)-1-(3-hydroxyphenyl)ethyl-amino]cyclobut-3-ene-1,2-dione]	> 1000
COCCn1cnc2cc(Nc3c(N[C@H](C)c4cccc(OC)c4)c(=O)c3=O)ccc21 [Compound A72, 3-[1-(2-methoxyethyl)-1H-benzimidazol-5-ylamino]-4-[(R)-1-(3-methoxyphenyl)ethyl-amino]cyclobut-3-ene-1,2-dione]	> 1000
Cc1cc(Nc2c(NCc3cccc(O)c3)c(=O)c2=O)cn2ccnc12 [Compound A55, 3-(3-hydroxybenzylamino)-4-(8-methyl-imidazo[1,2-a]pyridin-6-ylamino)cyclobut-3-ene-1,2-dione]	> 1000
O=c1c(NCc2ccc3c(c2)OCO3)c(Nc2ccc3[nH]cnc3c2)c1=O [Compound A123, 3-[(benzo[1,3]dioxol-5-ylmethyl)amino]-4-(1H-benzimidazol-5-ylamino)cyclobut-3-ene-1,2-dione]	> 1000
O=c1c(NCc2ccc3[nH]ccc3c2)c(Nc2ccc3[nH]cnc3c2)c1=O [Compound A79, 3-(1H-benzimidazol-5-ylamino)-4-[(1H-indol-5-ylmethyl)amino]cyclobut-3-ene-1,2-dione]	> 1000
CC(=O)Nc1ccc(CNc2c(Nc3ccc4[nH]cnc4c3)c(=O)c2=O)cc1 [Compound A157, 3-(1H-benzimidazol-5-ylamino)-4-(4-acetamidobenzylamino)cyclobut-3-ene-1,2-dione]	> 1000
COCCOc1cccc(CNc2c(Nc3ccc4[nH]cnc4c3)c(=O)c2=O)c1 [Compound A106, 3-(1H-benzimidazol-5-ylamino)-4-[3-(2-methoxyethoxy)benzylamino]cyclobut-3-ene-1,2-dione]	> 1000
O=c1c(NCc2cccc3[nH]ccc23)c(Nc2ccc3[nH]cnc3c2)c1=O [Compound A135, 3-(1H-benzimidazol-5-ylamino)-4-[(1H-indol-4-ylmethyl)amino]cyclobut-3-ene-1,2-dione]	> 1000
NS(=O)(=O)c1ccc(CNc2c(Nc3ccc4[nH]cnc4c3)c(=O)c2=O)cc1 [Compound A151, 3-(1H-benzimidazol-5-ylamino)-4-(4-amino-sulfonylbenzylamino)cyclobut-3-ene-1,2-dione]	> 1000
O=c1c(NCc2cccc(OC(F)F)c2)c(Nc2ccc3nc[nH]c3c2)c1=O [Compound A164, 3-(3H-benzimidazol-5-ylamino)-4-(3-difluoro-methoxybenzylamino)cyclobut-3-ene-1,2-dione]	> 1000
COc1cccc([C@@H](C)Nc2c(Nc3ccc4ncn(C)c4c3)c(=O)c2=O)c1 [Compound A53, 3-[(R)-1-(3-methoxyphenyl)ethylamino]-4-(3-methyl-3H-benzimidazol-5-ylamino)cyclobut-3-ene-1,2-dione]	< 1000
NC(=O)c1c[nH]c2ccc(Nc3c(NCc4cccc(O)c4)c(=O)c3=O)cc12 [Compound A32, 3-(3-aminocarbonyl-1H-indol-5-ylamino)-4-(3-hydroxybenzylamino)cyclobut-3-ene-1,2-dione]	> 1000
CN(C)Cc1c[nH]c2cc(CNc3c(Nc4ccc5[nH]cnc5c4)c(=O)c3=O)ccc12 [Compound A96, 3-(1H-benzimidazol-5-ylamino)-4-[(3-dimethylaminomethyl-1H-indol-6-ylmethyl)-amino]cyclobut-3-ene-1,2-dione]	> 1000
O=c1c(NCc2cccc(O)c2F)c(Nc2ccc3[nH]cnc3c2)c1=O [Compound A103, 3-(1H-benzimidazol-5-ylamino)-4-(2-fluoro-3-hydroxybenzylamino)cyclobut-3-ene-1,2-dione]	> 1000
Cc1cc2[nH]cnc2cc1Nc1c(NCc2cccc(O)c2)c(=O)c1=O [Compound A126, 3-(3-hydroxybenzylamino)-4-(6-methyl-1H-benzimidazol-5-ylamino)cyclobut-3-ene-1,2-dione]	> 1000
O=C(CC(Nc1c(Nc2ccc3[nH]cnc3c2)c(=O)c1=O)c1cccc(O)c1)N1CCNCC1 (stereo not shown) [Compound A112, 3-(1H-benzimidazol-5-ylamino)-4-[1-(3-hydroxyphenyl)-3-oxo-3-piperazin-1-ylpropyl-amino]cyclobut-3-ene-1,2-dione]	< 1000
CC[C@@H](Nc1c(Nc2ccc3[nH]cnc3c2)c(=O)c1=O)c1cccc(O)c1 [Compound A120, 3-(1H-benzimidazol-5-ylamino)-4-[(R)-1-(3-hydroxyphenyl)propylamino]cyclobut-3-ene-1,2-dione]	< 1000
O=c1c(NCc2ccc3[nH]cc(-c4ccncc4)c3c2)c(Nc2ccc3[nH]cnc3c2)c1=O [Compound A102, 3-(1H-benzimidazol-5-ylamino)-4-[(3-pyridin-4-yl-1H-indol-5-ylmethyl)amino]cyclobut-3-ene-1,2-dione]	> 1000
O=c1c(NCc2cccc(O)c2Cl)c(Nc2ccc3[nH]cnc3c2)c1=O [Compound A86, 3-(1H-benzimidazol-5-ylamino)-4-(2-chloro-3-hydroxybenzylamino)cyclobut-3-ene-1,2-dione]	> 1000
CCOC(=O)CC(Nc1c(Nc2ccc3[nH]cnc3c2)c(=O)c1=O)c1cccc(O)c1 (stereo not shown) [Compound A100, ethyl 3-[2-(1H-benzimidazol-5-ylamino)-3,4-dioxocyclobut-1-enylamino]-3-(3-hydroxy-phenyl)propionate]	> 1000
CC(Nc1c(Nc2ccc3[nH]ncc3c2)c(=O)c1=O)c1cccc(NC(N)=O)c1 (racemic) [Compound A145, 3-(1H-indazol-5-ylamino)-4-[(R,S)-1-(3-ureidophenyl)ethylamino]cyclobut-3-ene-1,2-dione]	> 1000
CN(Cc1cccc(O)c1)c1c(Nc2ccc3[nH]cnc3c2)c(=O)c1=O [Compound A38, 3-(1H-benzimidazol-5-ylamino)-4-[(3-hydroxybenzyl)methylamino]cyclobut-3-ene-1,2-dione]	< 1000
COc1ccccc1CCNc1c(Nc2ccc3[nH]cnc3c2)c(=O)c1=O [Compound A143, 3-(1H-benzimidazol-5-ylamino)-4-[2-(2-methoxyphenyl)ethylamino]cyclobut-3-ene-1,2-dione]	> 1000
